System: Human primary T cells
Experiment: IL-2 ELISA, Human Primary T Cell, Anti-CD3+CD28+ (Example 3)
Format: cell-based
Details: anti-CD3+CD28 stimulation
Description: Human primary T cell isolation and culture: Human primary T cells were prepared as follows. […] The cells at the serum:ficoll interface were recovered and washed twice with 5 volumes of PBS. […] The primary T-cells were then washed twice with PBS to remove the IL-2.
Primary T cell stimulation and IL2 ELISA: Human primary T cells (100,000 cells per well) were pre-incubated with or without test compound in Yssel's medium for 1 hr at 37° C. Cells were then stimulated by transferring them to round-bottom 96-well plates pre-coated with 1 ug/ml αCD3 and 5 μg/ml αCD28. For counter assay, cells were instead stimulated by adding 8× stock solutions of PMA and ionomycin in Yssels (for final concentrations of 0.5 ng/ml PMA and 0.1 uM ionomycin, both from Calbiochem).

Row | IC50 (24 hours) [nM] | IC50 (Homo sapiens, T-cell, 24 h) [nM] | Structure (SMILES)
1 | 2540 | – | CN1CC2(C)CN(c3ccc(Nc4ncc(F)c(NC5CC(C)(C)N(C)C(C)(C)C5)n4)cc3C(F)(F)F)CC(C)(C1)C2 [Compound I-259]
2 | 4670 | – | CN1C(C)(C)CCC(Nc2nc(Nc3ccc(N4CCOCC4)c(C(F)(F)F)c3)ncc2F)CC1(C)C (stereo not shown) [Compound I-261, 5-Fluoro-N2-[4-morpholine-3-trifluoromethyl]phenyl-N4-(1,2,2,7,7-pentamethylazepan-4-yl)-2,4-pyrimidinediamine]
3 | 14800 | – | COc1ccc(Nc2ncc(F)c(NC3CCC(C)(C)N(C)C(C)(C)C3)n2)cc1Cl (stereo not shown) [Compound I-262, 5-Fluoro-N2-[3-chloro-4-methoxy]phenyl-N4-(1,2,2,7,7-pentamethylazepan-4-yl)-2,4-pyrimidinediamine]
4 | 10900 | – | Cc1ccc(Nc2ncc(F)c(NC3CCC(C)(C)N(C)C(C)(C)C3)n2)cc1C#N (stereo not shown) [Compound I-263, 5-Fluoro-N2-[4-(methyl)-3-cyano]phenyl-N4-(1,2,2,7,7-pentamethylazepan-4-yl)-2,4-pyrimidinediamine]
5 | 4300 | – | CN1C(C)(C)CCC(Nc2nc(Nc3ccc(N4CCN(S(C)(=O)=O)CC4)c(C(F)(F)F)c3)ncc2F)CC1(C)C (stereo not shown) [Compound I-264, 5-Fluoro-N2-[4-methylsulfonylpiperazin-lyl-3-trifluoromethyl]phenyl-N4-(1,2,2,7,7-pentamethylazepan-4-yl)-2,4-pyrimidinediamine]
6 | 4320 | – | CN1C(C)(C)CCC(Nc2nc(Nc3cc(Cl)cc(Cl)c3)ncc2F)CC1(C)C (stereo not shown) [Compound I-265, 5-Fluoro-N2-[3,5-dichloro]phenyl-N4-(1,2,2,7,7-pentamethylazepan-4-yl)-2,4-pyrimidinediamine]
7 | 11200 | – | COc1cc(Nc2ncc(F)c(NC3CCC(C)(C)N(C)C(C)(C)C3)n2)cc(OC)c1OC (stereo not shown) [Compound I-266, 5-Fluoro-N2-[3,4,5-trimethoxy]phenyl-N4-(1,2,2,7,7-pentamethylazepan-4-yl)-2,4-pyrimidinediamine]
8 | 11700 | – | COc1ccc(Nc2ncc(F)c(NC3CCC(C)(C)N(C)C(C)(C)C3)n2)cc1OC (stereo not shown) [Compound I-267, 5-Fluoro-N2-[3,4-dimethoxy]phenyl-N4-(1,2,2,7,7-pentamethylazepan-4-yl)-2,4-pyrimidinediamine]
9 | 31700 | – | COc1ccc(Nc2ncc(F)c(NC3CCC(C)(C)N(C)C(C)(C)C3)n2)cc1C(F)(F)F (stereo not shown) [Compound I-268, 5-Fluoro-N2-[4-methoxy-3-trifluoromethyl]phenyl-N4-(1,2,2,7,7-pentamethylazepan-4-yl)-2,4-pyrimidinediamine]
10 | 8200 | – | COc1cccc(Nc2ncc(F)c(NC3CCC(C)(C)N(C)C(C)(C)C3)n2)c1 (stereo not shown) [Compound I-269, 5-Fluoro-N2-[3-methoxy]phenyl-N4-(1,2,2,7,7-pentamethylazepan-4-yl)-2,4-pyrimidinediamine]
11 | 3450 | – | CN1CCN(c2ccc(Nc3ncc(F)c(NC4CCC(C)(C)N(C)C(C)(C)C4)n3)cc2C(F)(F)F)CC1 (stereo not shown) [Compound I-270, 5-Fluoro-N2-[4-methylpiperizine-3-trifluoromethyl]phenyl-N4-(1,2,2,7,7-pentamethylazepan-4-yl)-2,4-pyrimidinediamine]
12 | 670 | – | CN1C(C)(C)CC(Nc2nc(Nc3cnc(N4CCOCC4)c(C(F)(F)F)c3)ncc2F)CC1(C)C [Compound I-271]
13 | 826 | – | COc1ccc(Nc2ncc(Br)c(NC3CC(C)(C)N(C)C(C)(C)C3)n2)cc1C(F)(F)F [Compound I-272]
14 | 1210 | – | COc1ccc(Nc2ncc(Br)c(NC3CC(C)(C)N(C)C(C)(C)C3)n2)cc1OC [Compound I-274]
15 | 617 | – | CN1C(C)(C)CC(Nc2nc(Nc3cccc(OC(F)(F)F)c3)ncc2Br)CC1(C)C [Compound I-275]
16 | 1830 | – | COc1cc(Nc2ncc(Br)c(NC3CC(C)(C)N(C)C(C)(C)C3)n2)cc(OC)c1OC [Compound I-276]
17 | 206 | – | Cc1ccc(Nc2ncc(Br)c(NC3CC(C)(C)N(C)C(C)(C)C3)n2)cc1C#N [Compound I-277]
18 | 7440 | – | CN1C(C)(C)CC(Nc2nc(Nc3cc(Cl)cc(Cl)c3)ncc2F)C1(C)C (stereo not shown) [Compound I-279, 5-Fluoro-N2-(3,5-dichloro) phenyl-N4-(1,2,2,5,5-pentamethylpyrrolidin-3-yl)-2,4-pyrimidinediamine]
19 | 2730 | – | COc1ccc(Nc2ncc(F)c(NC3CC(C)(C)N(C)C3(C)C)n2)cc1Cl (stereo not shown) [Compound I-280, 5-Fluoro-N2-(3-chloro-4-methoxy)phenyl-N4-(1,2,2,5,5-pentamethylpyrrolidin-3-yl)-2,4-pyrimidinediamine]
20 | 17100 | – | COc1ccc(Nc2ncc(F)c(NC3CC(C)(C)N(C)C3(C)C)n2)cc1OC (stereo not shown) [Compound I-281, 5-Fluoro-N2-(3,4-dimethoxy)phenyl-N4-(1,2,2,5,5-pentamethylpyrrolidin-3-yl)-2,4-pyrimidinediamine]
21 | 15300 | – | COc1cc(Nc2ncc(F)c(NC3CC(C)(C)N(C)C3(C)C)n2)cc(OC)c1OC (stereo not shown) [Compound I-282, 5-Fluoro-N2-(3,4,5-trimethoxy)phenyl-N4-(1,2,2,5,5-pentamethylpyrrolidin-3-yl)-2,4-pyrimidinediamine]
22 | 2700 | – | COc1ccc(Nc2ncc(F)c(NC3CC(C)(C)N(C)C3(C)C)n2)cc1C(F)(F)F (stereo not shown) [Compound I-283, 5-Fluoro-N2-(4-methoxy-3-trifluoromethyl)phenyl-N4-(1,2,2,5,5-pentamethylpyrrolidin-3-yl)-2,4-pyrimidinediamine]

Second part, the molecule before the results:

Row | Structure (SMILES) | IC50 (24 hours) [nM] | IC50 (Homo sapiens, T-cell, 24 h) [nM]
23 | CN1C(C)(C)CC(Nc2nc(Nc3ccc(OC(F)(F)F)c(-c4ccncc4)c3)ncc2F)CC1(C)C [Compound I-207] | 402 | –
24 | CN1C(C)(C)CC(Nc2nc(Nc3ccc(OC(F)(F)F)c(-c4ccoc4)c3)ncc2F)CC1(C)C [Compound I-209] | 706 | –
25 | CN1C(C)(C)CC(Nc2nc(Nc3ccc(OC(F)(F)F)c(-c4cnn(C)c4)c3)ncc2F)CC1(C)C [Compound I-210] | 1240 | –
26 | CN1C(C)(C)CC(Nc2nc(Nc3ccc(OC(F)(F)F)c(-c4cc5ccccc5s4)c3)ncc2F)CC1(C)C [Compound I-211] | 1700 | –
27 | CC(=O)N1CCN(c2cc(Nc3ncc(F)c(NC4CC(C)(C)N(C)C(C)(C)C4)n3)ccc2C(F)(F)F)CC1 [Compound I-212] | 445 | –
28 | COc1ccc(Nc2ncc(F)c(NC3CC(C)(C)N(C(C)=O)C(C)(C)C3)n2)cc1Cl [Compound I-213] | 19600 | –
29 | COC(=O)N1CCN(c2cc(Nc3ncc(F)c(NC4CC(C)(C)N(C)C(C)(C)C4)n3)ccc2C(F)(F)F)CC1 [Compound I-214] | 540 | –
30 | CC(=O)N1C(C)(C)CC(Nc2nc(Nc3ccc(N4CCN(S(C)(=O)=O)CC4)c(C(F)(F)F)c3)ncc2F)CC1(C)C [Compound I-215] | 25500 | –
31 | CC(=O)N1C(C)(C)CC(Nc2nc(Nc3ccc(N4CCN(C)CC4)c(C(F)(F)F)c3)ncc2F)CC1(C)C [Compound I-219] | 20800 | –
32 | CCCN1C(C)CN(c2cc(Nc3ncc(F)c(NC4CC(C)(C)N(C)C(C)(C)C4)n3)ccc2Cl)CC1C (stereo not shown) [Compound I-220] | 1050 | –
33 | CN1CCC(c2ccc(Nc3ncc(F)c(NC4CC(C)(C)N(C)C(C)(C)C4)n3)cc2)CC1 [Compound I-221] | 1270 | –
34 | CC1CC(c2ccc(Nc3ncc(F)c(NC4CC(C)(C)N(C)C(C)(C)C4)n3)cc2)CC(C)O1 (stereo not shown) [Compound I-222] | 1530 | –
35 | CC1CN(c2ccc(Nc3ncc(F)c(NC4CC(C)(C)N(C)C(C)(C)C4)n3)cc2C(F)(F)F)CC(C)O1 (stereo not shown) [Compound I-225] | 755 | –
36 | COc1ccc(Nc2nccc(NC3CC(C)(C)N(C)C(C)(C)C3)n2)cc1Cl [Compound I-226] | 1140 | –
37 | CN1C(C)(C)CC(Nc2ccnc(Nc3cccc(C#N)c3)n2)CC1(C)C [Compound I-227] | – | 806
38 | CN1C(C)(C)CC(Nc2ccnc(Nc3ccc(N4CCN(S(C)(=O)=O)CC4)c(C(F)(F)F)c3)n2)CC1(C)C [Compound I-228] | 720 | –
39 | CN1CCN(c2ccc(Nc3nccc(NC4CC(C)(C)N(C)C(C)(C)C4)n3)cc2C(F)(F)F)CC1 [Compound I-229] | 585 | –
40 | CN1C(C)(C)CC(Nc2nc(Nc3ccc(C(=O)NC4CC4)c(C(F)(F)F)c3)ncc2F)CC1(C)C [Compound I-230] | 1090 | –
41 | CN1C(C)(C)CC(Nc2nc(Nc3ccc(OC(F)(F)F)cc3)ncc2F)CC1(C)C [Compound I-231] | – | 1750
42 | CN1C(C)(C)CC(Nc2nc(Nc3ccc(N4CCCCC4)c(C(F)(F)F)c3)ncc2F)CC1(C)C [Compound I-233] | 1600 | –
43 | CN1C(C)(C)CC(Nc2nc(Nc3ccc(N4CCCC4)c(OC(F)F)c3)ncc2F)CC1(C)C [Compound I-237] | 887 | –
44 | CN1C(C)(C)CC(Nc2nc(Nc3cccc(OC(F)(F)F)c3)ncc2Cl)CC1(C)C [Compound I-240] | – | 683
45 | CN1C(C)(C)CC(Nc2nc(Nc3ccc(N4CCOCC4)c(C(F)(F)F)c3)ncc2Cl)CC1(C)C [Compound I-241] | 361 | –
46 | CN1C(C)(C)CC(Nc2nc(Nc3cccc(OC(F)(F)F)c3)ncc2C(F)(F)F)CC1(C)C [Compound I-242] | – | 8190
47 | CN1C(C)(C)CC(Nc2nc(Nc3cccc(NS(C)(=O)=O)c3)ncc2F)CC1(C)C [Compound I-243] | 684 | –
48 | CN1C(C)(C)CC(Nc2nc(Nc3ccc(O)cc3)ncc2F)CC1(C)C [Compound I-252] | 10200 | –
49 | CN1CCN(c2ccc(Nc3ncc(F)c(NC4CC(C)(C)NC(C)(C)C4)n3)cc2C(F)(F)F)CC1 [Compound I-255] | 236 | –
50 | CN1CCN(c2ccc(Nc3ncc(F)c(NC4CC(C)(C)NC(C)(C)C4)n3)cc2Cl)CC1 [Compound I-256] | 246 | –
51 | CC1(C)CC(Nc2nc(Nc3ccc(N4CCN(S(C)(=O)=O)CC4)c(C(F)(F)F)c3)ncc2F)CC(C)(C)N1 [Compound I-257] | 423 | –
52 | CC1(C)CC(Nc2nc(Nc3ccc(N4CCN(S(C)(=O)=O)CC4)c(Cl)c3)ncc2F)CC(C)(C)N1 [Compound I-258] | 399 | –
